Results: patent US9170257B2 (priority 2012, dated 2015)
Read-outs that look alike come from different tables or passages of the source.

Experiments:
[1] = Plasma pharmacokinetics of curcumin and THC during and after intravenous infusion of liposomal curcumin; type: in vivo, Beagle dogs
Experimental: (§1) The results and analysis for the study are presented for intravenous infusion dosing of a total dose of 10 mg/kg infused over a period of either 2 or 8 hours. Plasma levels of curcumin and its metabolite, THC were measured at timed intervals post-dosing.
For the 2 hour infusion, blood samples were taken at predose and 0.25, 0.5, 1.5 and at 2 hours during infusion and at 15 minutes post-infusion. For the 8 hour infusion, blood samples were taken at predose and 0.25, 0.5, 1.5, […] and at 8 hours during infusion and at 15 minutes post-infusion.
(§2) Bioanalysis was performed on two sets of samples, one set that was treated with phosphoric acid and one set that was not treated with phosphoric acid. […] Values that were below the limit of quantification were assigned a value of 0.
Plasma concentration vs. time profiles were analyzed using (unless otherwise stated) the data from 4 dogs. Plasma profiles for the test articles are presented as the mean data±SE of 4 dogs. Average plasma concentrations were used to perform the PK analysis. Plasma concentration vs. time profiles were analyzed and the PK parameters estimated using WinNonlin Version 5.2.1 employing the intravenous infusion model with first order elimination. Unless stated otherwise, the plasma concentration-time profiles for the test articles are presented as the mean data±SE of 4 dogs.

[2] = Plasma, urine and bile levels of curcumin and THC 15 minutes post-infusion; type: in vivo, Beagle dogs; settings: for Plasma level / concentration at 15 min: mean±SE; for concentration at 15 min / Kp: both sexes, dog, in vivo, 10 mg/kg; for concentration at 15 min: Beagle; for Kp: beagle
Experimental: as §1, §2
Fifteen minutes following either the 2 hour or 8 hour infusion, blood, urine and bile samples were taken, prior to the dogs being necropsied and organs removed for the isolation of tissues. Multiple samples of tissue weighing approximately 1 gram were removed and snap frozen in the presence or absence of phosphoric acid (H3PO4). For all tissue samples, the levels of curcumin and THC were determined using a method developed by the Bioanalytical Department at Nucro-Technics. […] Values that were below the limit of quantification were assigned a value of 0. […] Tissue distribution data was analyzed using, unless stated, the data from 4 dogs and are presented as the mean±standard error (S.E.).

[3] = Bench stability in Phase 1 human plasma samples; type: in vitro ADME; settings: human plasma with Na-phosphate, room temperature, a couple of hours
Experimental: After the addition of 50 μl 5% H3PO4 to 950 ml plasma the pH was 4.4.

[4] = both sexes, Beagle, dog, in vivo, 10 mg/kg, 1.25 mg/kg/hr, mean±SE, read-out: [Plasma + PO4]
[5] = both sexes, Beagle, dog, in vivo, 10 mg/kg, 1.25 mg/kg/hr, mean±SE, read-out: [Plasma]
[6] = both sexes, Beagle, dog, in vivo, 10 mg/kg, 5 mg/kg/hr, mean±SE, read-out: [Plasma + PO4]
[7] = both sexes, Beagle, dog, in vivo, 10 mg/kg, 5 mg/kg/hr, mean±SE, read-out: [Plasma]

COc1cc(CCC(=O)CC(=O)CCc2ccc(O)c(OC)c2)ccc1O [THC, tetrahydrocurcumin]
Ke ([1]; 2 hour i.v. infusion, total dose 10 mg/kg, fitted): 1.4 h⁻¹ | ratio of THC to curcumin based on AUC ([1]; 2 hour infusion): 9.6 | ratio of THC to curcumin based on AUC ([1]; 8 hour infusion): 6.3 | Plasma THC levels higher than curcumin ([1]; at both infusion rates (2 and 8 hours)): 6.3-9.6 fold | concentration at 15 min [1, 4]: 59 ± 24 ng/mL | concentration at 15 min [1, 5]: 72 ± 15 ng/mL | concentration at 30 min [1, 4]: 121 ± 28 ng/mL | concentration at 30 min [1, 5]: 63 ± 15 ng/mL | concentration at 90 min [1, 4]: 293 ± 73 ng/mL | concentration at 90 min [1, 5]: 64 ± 14 ng/mL | concentration at 2 hr [1, 4]: 226 ± 64 ng/mL | concentration at 2 hr [1, 5]: 68 ± 11 ng/mL | concentration at 4 hr [1, 4]: 193 ± 127 ng/mL | concentration at 4 hr [1, 5]: 77 ± 8 ng/mL | concentration at 6 hr [1, 4]: 64 ± 10 ng/mL | concentration at 6 hr [1, 5]: 0 ng/mL | concentration at 8 hr [1, 4]: 62 ± 26 ng/mL | concentration at 8 hr [1, 5]: 67 ± 29 ng/mL | concentration at 15 min [1, 6]: 284 ± 89 ng/mL | concentration at 15 min [1, 7]: 483 ± 50 ng/mL | concentration at 30 min [1, 6]: 1120 ± 318 ng/mL | concentration at 30 min [1, 7]: 566 ± 77 ng/mL | concentration at 90 min [1, 6]: 2350 ± 441 ng/mL | concentration at 90 min [1, 7]: 891 ± 238 ng/mL | concentration at 2 hr [1, 7]: 454 ± 79 ng/mL | AUC ([1]; both sexes, Beagle, dog, in vivo, iv, 10 mg/kg, 2 hr infusion + phosphate, AUC to 15 min post-infusion, read-out: AUC): 3800 ng·h/mL | AUC ([1]; both sexes, Beagle, dog, in vivo, iv, 10 mg/kg, 8 hr infusion + Phosphate, AUC to 15 min post-infusion, read-out: AUC): 1170 ng·h/mL | AUC ([1]; both sexes, Beagle, dog, in vivo, iv, 10 mg/kg, 8 hr infusion, 10 mg/kg, plasma without phosphoric acid, AUC to 15 min post-infusion, read-out: AUC): 411 ng·h/mL | Cmax ([1]; both sexes, Beagle, dog, in vivo, iv, 10 mg/kg, 8 hr infusion, plasma without phosphoric acid, observed, read-out: Cmax): 77 ng/mL | concentration at 2 h ([1]; both sexes, beagle, dog, in vivo, 10 mg/kg, 5 mg/kg/hr, 2 hr (end of infusion), mean±SE, read-out: [Plasma + PO4]): 2980 ± 852 ng/mL | AUC ([1]; both sexes, beagle, dog, in vivo, iv, 10 mg/kg, 2 hour i.v. infusion, total dose 10 mg/kg, fitted, first-order elimination infusion model, read-out: AUC (estimated PK parameter)): 5180 ng·h/mL | Cmax ([1]; both sexes, beagle, dog, in vivo, iv, 10 mg/kg, 2 hour i.v. infusion, total dose 10 mg/kg, fitted, first-order elimination infusion model, read-out: Cmax (estimated PK parameter)): 2430 ng/mL | AUC ([1]; both sexes, beagle, dog, in vivo, iv, 10 mg/kg, 2 hour infusion, + phosphoric acid, read-out: calculated AUC (observed)): 3800 ng·h/mL | Cmax ([1]; both sexes, beagle, dog, in vivo, iv, 10 mg/kg, 2 hr infusion + phosphate, observed, read-out: Cmax): 2980 ng/mL | AUC ([1]; both sexes, beagle, dog, in vivo, iv, 10 mg/kg, 2 hr infusion, 10 mg/kg, plasma without phosphoric acid, AUC to 15 min post-infusion, read-out: AUC): 1320 ng·h/mL | Cmax ([1]; both sexes, beagle, dog, in vivo, iv, 10 mg/kg, 2 hr infusion, plasma without phosphoric acid, observed, read-out: Cmax): 891 ng/mL | Cmax ([1]; both sexes, beagle, dog, in vivo, iv, 10 mg/kg, 8 hr infusion + Phosphate, observed, read-out: Cmax): 293 ng/mL | MRT ([1]; both sexes, beagle, dog, in vivo, iv, 2 hour i.v. infusion, total dose 10 mg/kg, fitted, read-out: MRT): 42 min | half-life ([1]; both sexes, beagle, dog, in vivo, iv, 2 hour i.v. infusion, total dose 10 mg/kg, fitted, read-out: t1/2(e) (converted)): 30 min | ratio of plasma THC to curcumin ([1]; two infusion rates): 6.3-9.6 | Plasma level ([2]; 15 min after 2 hour infusion, + H3PO4): 1167 ± 379 ng/mL | Plasma level ([2]; 15 min after 8 hour infusion, no H3PO4): 20 ± 4^2 ng/mL | concentration at 15 min ([2]; 15 min after 2 hour infusion, + H3PO4, read-out: Bile level): 391 ± 197 ng/mL | concentration at 15 min ([2]; 15 min after 2 hour infusion, + H3PO4, read-out: Urine level): 3590 ± 1080 ng/mL | concentration at 15 min ([2]; 15 min after 2 hour infusion, no H3PO4, read-out: Bile level): 187 ± 74 ng/mL | concentration at 15 min ([2]; 15 min after 2 hour infusion, no H3PO4, read-out: Plasma level): 38 ± 4 ng/mL | concentration at 15 min ([2]; 15 min after 2 hour infusion, no H3PO4, read-out: Urine level): 6420 ± 1450 ng/mL | concentration at 15 min ([2]; 15 min after 8 hour infusion, + H3PO4, read-out: Bile level): 168 ± 53 ng/mL | concentration at 15 min ([2]; 15 min after 8 hour infusion, + H3PO4, read-out: Plasma level): 142 ± 122 ng/mL | concentration at 15 min ([2]; 15 min after 8 hour infusion, + H3PO4, read-out: Urine level): 621 ± 206 ng/mL | concentration at 15 min ([2]; 15 min after 8 hour infusion, no H3PO4, read-out: Bile level): 84 ± 12 ng/mL | concentration at 15 min ([2]; 15 min after 8 hour infusion, no H3PO4, read-out: Urine level): 2450 ± 84 ng/mL | Kp ([2]; higher infusion rate (5 mg/kg/hr), read-out: bile to plasma concentration ratio): 1.2 | Kp ([2]; higher infusion rate (5 mg/kg/hr), read-out: urine to plasma concentration ratio): 4.4 | Kp ([2]; low infusion rate (1.25 mg/kg/hr), read-out: bile to plasma concentration ratio): 0.3 | Kp ([2]; low infusion rate (1.25 mg/kg/hr), read-out: urine to plasma concentration ratio): 3.1 | bench stability [3]: minimal
